Laboratory results: BigSolDB 2.1

CCCCOc1ccc(C(=O)CCN2CCCCC2)cc1.Cl
solubility (mole fraction)
Settings | 278.15 K | 283.15 K | 288.15 K | 293.15 K | 298.15 K | 303.15 K | 308.15 K | 313.15 K | 318.15 K | 323.15 K
in DMF | 0.0201 | 0.0227 | 0.0256 | 0.0291 | 0.0328 | 0.0371 | 0.0421 | 0.0475 | 0.0539 | 0.0608
in THF | 0.00088 | 0.00098 | 0.00108 | 0.00119 | 0.00133 | 0.00147 | 0.00162 | 0.0018 | 0.002 | 0.00221
in acetone | 0.0121 | 0.0148 | 0.018 | 0.0218 | 0.0263 | 0.0321 | 0.0389 | 0.0474 | 0.0574 | 0.0695
in ethanol | 0.062 | 0.07 | 0.0786 | 0.0882 | 0.0987 | 0.111 | 0.124 | 0.14 | 0.157 | 0.175
in ethyl acetate | 0.00638 | 0.00791 | 0.00983 | 0.012 | 0.0146 | 0.0181 | 0.0223 | 0.0276 | 0.0338 | 0.0415
in methanol | 0.0804 | 0.0905 | 0.103 | 0.116 | 0.131 | 0.147 | 0.166 | 0.188 | 0.212 | 0.238
in n-hexane | 0.00084 | 0.00095 | 0.00108 | 0.00122 | 0.00137 | 0.00155 | 0.00175 | 0.00198 | 0.00224 | 0.00253
in water | 0.0296 | 0.0339 | 0.039 | 0.045 | 0.0514 | 0.059 | 0.0674 | 0.0774 | 0.0888 | 0.102
